Reference: US11096930B2, “Substituted imidazopyridine compounds as inhibitors of indoleamine 2,3-dioxygenase and/or tryptophan-2,3-dioxygenase” (IOMet Pharma Ltd., priority 2016, dated 2021)

Experiments:
[1] = molecular target: T1, IDO1 (Homo sapiens (Human), UniProt P14902); test: IDO1 Enzyme Assay; format: biochemical; conditions: HIS-tagged IDO1, fluorescence
Procedure: Compounds to be tested were serially diluted in ten 3-fold steps in DMSO starting from 10 mM DMSO stocks. Compound dilutions or DMSO alone were then dispensed from the dilution plate into a Greiner black 384-well assay plate (catalog #781086) using an Echo 555 acoustic liquid handler (Labcyte).
HIS-tagged IDO1 protein was recombinantly expressed in Escherichia coli using ZYP5052 autoinduction media supplemented with 500 μM delta aminolevulinic acid for 48 hours at 16 degrees Celsius. IDO1 protein was purified using Ni^2+-affinity resin and size exclusion chromatography. Purified protein was then diluted in assay buffer (50 mM Tris pH 7.0, 1% glycerol, 20 μM methylene blue, 0.05% Tween-20, 20 mM sodium ascorbate, 100 units/mL catalase to obtain a final IDO1 concentration of 40 nM. […] were dispensed to wells of the assay plate using a BioRAPTR liquid dispenser (Beckman Coulter). Assay plates containing compound and IDO1 enzyme were incubated at room temperature for 30 minutes. Afterwards, 10 μL of 400 μM tryptophan in assay buffer were added to each well of the assay plate using a BioRAPTR liquid dispenser. Plates were incubated at room temperature for 60 minutes and reactions were quenched by addition of 10 μL of 0.5 M methyl isonipecotate in dimethyl sulfoxide. Plates were sealed and incubated at 37 degrees Celsius for 4 hours or 50 degrees Celsius for 2 hours. The plates are allowed to cool and then centrifuged for 1 minute at 1000×g. The resulting fluoresence was measured in an Envision plate reader (Perkin Elmer) with a 400/25 nm excitation filter and an 510/20 nm emission filter.
Potencies were calculated by linear least squares fit to the four parameter logistic IC50 equation.

[2] = molecular target: T1, IDO1; test: IDO1 HEK293 Cellular Assay; format: cell-based; conditions: HEK293 cells transfected with Flag-IDO1 vector; read-out: HEK293 Cell Assay, pIC50 (converted)
Procedure: IDO1 HEK293 Cellular Assay
Compounds to be tested were serially diluted in ten 3-fold steps in DMSO starting from 10 mM DMSO stocks. Compound dilutions or DMSO alone were then dispensed from the dilution plate into a Greiner black 384-well assay plate (catalog #781086) using an Echo 550 acoustic liquid handler (Labcyte).
HEK293 cell pellets were resuspended to 5×10^5 cells/mL in complete HEK293 culture media (89% DMEM, 10% FBS, 1% penicilllin/streptomycin). Suspended cells (2 mL) were dispensed into each well of a 6-well Corning plate (Catalog #3516). Cells were allowed to attach and were incubated for 20 hours at 37 degrees Celsius in a 5% CO2 incubator. Flag-IDO1 vector (Genscript True ORF Gold, 2 ug) in 150 uL of Opti-MEM medium was added to each well of a Corning 24 well plate (Cat #3527) and incubated for 5 minutes at room temperature. To each well of the 24-well plate was added 150 μL Lipofectamine 2000 (Gibco) and the plate incubated at room temperature for 20-30 minutes. To each well of attached cells in the 6-well plate, 250 μL of the transfection mix from the 24-well plate was gently added to each well and IDO1 protein was allowed to express for 24-30 hours at 37 degrees Celsius in a 5% CO2 incubator.
Media was removed from the cells which were then washed with 2 mL Dulbecco's phosphate-buffered saline (DPBS). After removal of DPBS, 0.5 mL of TrypLE (Gibco) was added and incubated at 5 minutes until cells lift from the surface of the wells. Complete HEK293 culture media (4 mL) was added to each well and cells were collected and pooled into a conical tube. Cells were pelleted at 200×g for 5 minutes and resuspended in an equal volume of complete DMEM medium. Cells were diluted to 4×10^5 cells per mL in complete HEK293 media. L-Tryptophan was added to added to give a final concentration of 200 μM. The diluted transfected cells (50 μL) or nontransfected cells (50 μL) were dispensed into wells of Greiner black 384-well assay plates (catalog #781086) containing previously diluted compounds. The plate is briefly mixed and centrifuged at 200×g for 10 seconds to collect cells at the bottom of the plate. Plates were covered and incubated for 20-24 hours at 37 degrees C. in a 5% CO2 incubator. […] The resulting fluoresence was measured in an Envision plate reader (Perkin Elmer) with a 400/25 nm excitation filter and an 510/20 nm emission filter.
The fluoresence intensity of each well was corrected for the background observed in wells with untransfected cells and was expressed as a fraction of the intensity observed in wells of IDO1 transfected cells and DMSO only. Potencies were calculated by linear least squares fit to the four parameter logistic IC50 equation.

[3] = molecular target: T2, IDO (Homo sapiens (Human), UniProt P14902); test: hIDO biochemical coupled assay; conditions: 45 μM L-tryptophan
T2 sequence (P14902 whole entry): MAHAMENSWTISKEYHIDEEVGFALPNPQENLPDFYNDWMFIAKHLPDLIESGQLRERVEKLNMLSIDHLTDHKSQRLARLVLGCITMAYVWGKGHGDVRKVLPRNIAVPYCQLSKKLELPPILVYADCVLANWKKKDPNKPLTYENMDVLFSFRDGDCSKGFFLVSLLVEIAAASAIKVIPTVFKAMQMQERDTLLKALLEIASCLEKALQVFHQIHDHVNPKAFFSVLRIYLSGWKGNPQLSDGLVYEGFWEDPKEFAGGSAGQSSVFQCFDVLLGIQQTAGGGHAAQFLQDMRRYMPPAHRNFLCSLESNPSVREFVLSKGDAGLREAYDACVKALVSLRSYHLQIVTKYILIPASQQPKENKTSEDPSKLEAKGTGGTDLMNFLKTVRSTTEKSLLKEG
Procedure: (§1) Exemplary compounds disclosed herein were prepared, and tested to determine their effect as IDO and/or TDO inhibitors. Two different assays were employed: 1. a cell-based assay for detecting the effect of test compounds on kynurenine production in two different cancer cell types. This assay utilized cancer cells which expressed either TDO or IDO and as such was used as a means of testing compound activity at these two enzymes in a cell-based context. 2. a TDO and IDO biochemical coupled assay which utilized recombinantly produced and purified TDO and IDO enzymes in combination with the enzyme formamidase. This coupled enzyme system allowed conversion of N-formylkynurenine produced by TDO or IDO activity to kynurenine which was then quantified by fluorescence following addition of Erhlich's Reagent. The protocols for these are set out below.
(§2) TDO and IDO Biochemical Coupled Assay
(§3) Recombinant human IDO or TDO was incubated in 50 mM KPO4 (pH 7.0), 0.5 mM EGTA, 0.5 mM EDTA, 0.05% Triton™ X100, 20 mM ascorbate, 10 μM methylene blue, 500 U/ml catalase, 50 μg/ml KynB (kynurenine formamidase). […] After incubation for 17 minutes at room temperature the reactions were stopped by the addition of Erhlich's reagent and incubated at room temperature for 5 minutes before the fluorescence was read.

[4] = molecular target: T3, TDO (Homo sapiens (Human), UniProt P48775); test: A172 (TDO) cell based assay for detection of kynurenine; conditions: A172 cells, 48 hours, read-out: pIC50 A172 (TDO) cell based assay (converted)
T3 sequence (P48775 whole entry): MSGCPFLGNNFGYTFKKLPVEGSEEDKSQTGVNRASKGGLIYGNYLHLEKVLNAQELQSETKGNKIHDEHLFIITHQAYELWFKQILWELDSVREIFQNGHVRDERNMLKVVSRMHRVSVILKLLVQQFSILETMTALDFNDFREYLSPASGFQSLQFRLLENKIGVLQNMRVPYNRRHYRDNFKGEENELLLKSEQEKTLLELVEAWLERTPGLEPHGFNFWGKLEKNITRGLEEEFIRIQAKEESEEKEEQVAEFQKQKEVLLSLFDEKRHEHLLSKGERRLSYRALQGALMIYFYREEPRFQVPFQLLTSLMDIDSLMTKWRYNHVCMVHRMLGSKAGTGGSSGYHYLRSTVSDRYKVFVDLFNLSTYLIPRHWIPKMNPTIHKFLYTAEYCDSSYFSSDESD
Procedure: as §1
(§4) A172 and SKOV3 Cell Based Assays for Detection of Kynurenine Produced by TDO and/or IDO
(§5) A172 (human glioblastoma) and SKOV3 (human ovarian adenocarcinoma) cells were seeded in a 96 well plate at 30,000 or 40,000 cells per well respectively in phenol red-free RPMI supplemented with 10% FCS, 2 mM L-glutamine and 500 μM L-tryptophan. IDO expression was induced in the SKOV3 cells by the addition of 500 ng/ml IFN-γ. Cells were incubated at 37° C. with or without the addition of test compound. After 48 hours, the cells were removed by centrifugation and Erhlich's reagent was added to the supernatant.

[5] = molecular target: T2, IDO; test: SKOV3 (IDO) cell based assay for detection of kynurenine; conditions: SKOV3 cells, IDO induced by IFN-γ, 48 hours, read-out: pIC50 SKOV3 (IDO) cell based assay (converted)
Procedure: as §1, §4, §5

[6] = molecular target: T3, TDO; test: hTDO biochemical coupled assay; conditions: 330 μM L-tryptophan
Procedure: as §1, §2, §3

T1 sequence (P14902 whole entry): as the sequence (P14902 whole entry) above

O=C1NCCC12CCN(c1cc(C(F)(F)F)cc3cncn13)CC2 [Example 19, 8-(7-(trifluoromethyl)imidazo[1,5-a]pyridin-5-yl)-2,8-diazaspiro[4.5]decan-1-one]
IDO1 Enzyme Assay, pIC50 [1]: 5.1
IC50 [2]: 6310 nM

CC1=NC2(CCN(c3cc(C(F)(F)F)cc4cncn34)CC2)C(=O)N1 [Example 18, 2-methyl-8-(7-(trifluoromethyl)imidazo[1,5-a]pyridin-5-yl)-1,3,8-triazaspiro[4.5]dec-1-en-4-one]
IDO1 Enzyme Assay, pIC50 [1]: 5.7
IC50 [2]: 1580 nM

CC(=O)N1CCC2(CC1)CCN(c1cc(C(F)(F)F)cc3cncn13)CC2 [Example 20, 1-(9-(7-(Trifluoromethyl)imidazo[1,5-a]pyridin-5-yl)-3,9-diazaspiro[5.5]undecan-3-yl)ethan-1-one]
IDO1 Enzyme Assay, pIC50 [1]: 5.2
IC50 [2]: 2000 nM

O=C1OCCC12CCN(c1cc(C(F)(F)F)cc3cncn13)CC2 [Example 17, 8-(7-(trifluoromethyl)imidazo[1,5-a]pyridin-5-yl)-2-oxa-8-azaspiro[4.5]decan-1-one]
IDO1 Enzyme Assay, pIC50 [1]: 5.7
IC50 [2]: 1580 nM

O=C1NC(=O)C2(CCN(c3cc(Cl)cc4cncn34)CC2)N1 [Example 3, 8-(7-Chloroimidazo[1,5-a]pyridin-5-yl)-1,3,8-triazaspiro[4.5]decane-2,4-dione]
pIC50 hIDO biochemical coupled assay [3]: 6.55
IC50 [4]: > 10000 nM
IC50 [5]: 1410 nM
pIC50 hTDO biochemical coupled assay [6]: 5.85

CN1C(=O)NC2(CCN(c3cc(C(F)(F)F)cc4cncn34)CC2)C1=O [Example 6, 3-Methyl-8-(7-(trifluoromethyl)imidazo[1,5-a]pyridin-5-yl)-1,3,8-triazaspiro[4.5]decane-2,4-dione]
pIC50 hIDO biochemical coupled assay [3]: 5.89
IC50 [4]: > 10000 nM
IC50 [5]: 6170 nM
pIC50 hTDO biochemical coupled assay [6]: 5.74

CC1(C)CN(c2cc(Br)cc3cncn23)CCC12NC(=O)NC2=O (stereo not drawn) [Example 16, 8-(7-Bromoimidazo[1,5-a]pyridin-5-yl)-6,6-dimethyl-1,3,8-triazaspiro[4.5]decane-2,4-dione]
pIC50 hIDO biochemical coupled assay [3]: 7.06
IC50 [4]: 7940 nM
IC50 [5]: 135 nM
pIC50 hTDO biochemical coupled assay [6]: 5.92

O=C1CC2(CCN(c3cc(C(F)(F)F)cc4cncn34)CC2)C(=O)N1 [Example 13, 8-(7-(trifluoromethyl)imidazo[1,5-a]pyridin-5-yl)-2,8-diazaspiro[4.5]decane-1,3-dione]
pIC50 hIDO biochemical coupled assay [3]: 6.53
IC50 [4]: > 10000 nM
IC50 [5]: 1260 nM
pIC50 hTDO biochemical coupled assay [6]: 5.77
